The values below come from patent US11691972B2, “Compounds for targeted degradation of BRD9” (C4 Therapeutics, Inc., priority 2020, dated 2023).

Where two headings read alike, the source gives them in different places.

This test concerns the target T1, BRD9 (Homo sapiens, UniProt Q9H8M2).
T1 sequence (Q9H8M2 1-597): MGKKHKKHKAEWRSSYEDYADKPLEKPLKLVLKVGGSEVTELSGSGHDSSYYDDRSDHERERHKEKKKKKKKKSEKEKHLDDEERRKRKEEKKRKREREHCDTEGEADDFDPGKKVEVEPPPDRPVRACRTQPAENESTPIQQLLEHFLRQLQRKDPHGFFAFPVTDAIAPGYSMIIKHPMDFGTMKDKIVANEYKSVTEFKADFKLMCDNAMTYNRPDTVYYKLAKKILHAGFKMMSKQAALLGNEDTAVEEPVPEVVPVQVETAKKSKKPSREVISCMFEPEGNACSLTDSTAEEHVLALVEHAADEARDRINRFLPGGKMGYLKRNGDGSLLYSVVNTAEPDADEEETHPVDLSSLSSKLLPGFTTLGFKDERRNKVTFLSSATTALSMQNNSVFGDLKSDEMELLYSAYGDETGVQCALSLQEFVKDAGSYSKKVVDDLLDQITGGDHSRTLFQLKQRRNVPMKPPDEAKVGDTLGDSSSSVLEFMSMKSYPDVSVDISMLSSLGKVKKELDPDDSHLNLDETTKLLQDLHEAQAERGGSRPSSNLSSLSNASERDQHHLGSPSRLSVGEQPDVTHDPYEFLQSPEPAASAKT
As to the kind of experiment: HiBiT BRD9 degradation assay in 293T.166 (BRD9-HiBiT) cells. It counts as cell-based. Also on record: endogenously expressing BRD9 with HiBiT fusion tag via CRISPR; host or cells: 293T.166 (BRD9-HiBiT), also expressing LgBiT ectopically. Particulars: 293T.166 cells, 2.0 hours, class symbols, read-out: HiBiT-Degradation 293T.166 BRD9 2.0 hours (DC50). The gist of the method: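 293T.166 cells carrying endogenous CRISPR BRD9-HiBiT and expressing LgBiT treated 2 h at 37° C. with compounds, 11-point half-log titration from 10 μM in duplicate. Remaining BRD9 measured as lytic HiBiT luminescence; untreated cells as negative control, no-reagent wells as positive control.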

With `COc1cc(-c2cn(C)c(=O)c3[nH]ncc23)cc(Cl)c1CN1CCC(C2CCN(c3ccc(NC4CCC(=O)NC4=O)cc3F)CC2)CC1` (centres unmarked) [Compound 73, 3-[4-[4-[1-[[2-chloro-6-methoxy-4-(6-methyl-7-oxo-1H-pyrazolo[3,4-c]pyridin-4-yl)phenyl]methyl]-4-piperidyl]-1-piperidyl]-3-fluoro-anilino]piperidine-2,6-dione], the DC50 (Table 1) was less than 100 nM. Same read-out and setting: the same measure for `Cc1c(-c2ccc(C(=O)N3CCC(N(C)C(=O)N4CCC(c5ccc(NC6CCC(=O)NC6=O)cc5)CC4)CC34CC4)c(OC(F)(F)F)c2)cn(C)c(=O)c1C` (centres unmarked) [Compound 137]: less than 100 nM; for `Cc1c(-c2ccc(C(=O)N3CCC(C4CCN(c5ccc(NC6CCC(=O)NC6=O)cc5F)CC4)CC3)c(OC(F)(F)F)c2)cn(C)c(=O)c1C` (single isomer, unassigned) [Compound 214, 3-[3-fluoro-4-[4-[1-[2-(trifluoromethoxy)-4-(1,4,5-trimethyl-6-oxo-3-pyridyl)benzoyl]-4-piperidyl]-1-piperidyl]anilino]piperidine-2,6-dione]: less than 100 nM. On the same count and under the same terms, the same measure for `COc1cc(-c2cn(C)c(=O)c(C)c2C)cc(Cl)c1CN1CCC(C2CCN(c3ccc(NC4CCC(=O)NC4=O)cc3C(F)(F)F)CC2)CC1` (centres unmarked) [Compound 85]: less than 100 nM. `COc1cc(-c2cn(C)c(=O)c3cnccc23)cc(OC)c1CN1CCC(N2CCN(c3ccc(NC4CCC(=O)NC4=O)cc3C(F)(F)F)CC2)C(F)(F)C1` (centres unmarked) [Compound 185]: where the note is “Table 1”, the DC50 was less than 100 nM. Turning to `COc1cc(-c2cn(C)c(=O)c(C)c2C)cc(Cl)c1CN1CCC(C2CCN(c3ccc(NC4CCC(=O)NC4=O)cc3F)CC2)CC1` (centres unmarked) [Compound 74], the DC50 (Table 1) was less than 100 nM. As for `COc1cc(-c2cn(C)c(=O)c3cnccc23)cc(Cl)c1C(=O)N1CCC(CC(=O)N2CCC(c3ccc(NC4CCC(=O)NC4=O)cc3)CC2)CC1` (centres unmarked) [Compound 232, 3-[4-[1-[2-[1-[2-chloro-6-methoxy-4-(2-methyl-1-oxo-2,7-naphthyridin-4-yl)benzoyl]-4-piperidyl]acetyl]-4-piperidyl]anilino]piperidine-2,6-dione], where the note is “Table 1”, the DC50 is less than 100 nM. On the same count and under the same terms, the same measure for `COc1cc(-c2cn(C)c(=O)c3cnccc23)cc(Cl)c1CN1CCC(CCC2CCN(c3ccc(NC4CCC(=O)NC4=O)cc3F)CC2)CC1` (centres unmarked) [Compound 150]: less than 100 nM; for `COc1cc(-c2cn(C)c(=O)c3[nH]ncc23)cc(Cl)c1CN1CCC(C2CCN(c3ccc(NC4CCC(=O)NC4=O)cc3)CC2)CC1` (centres unmarked) [Compound 71]: less than 100 nM; for `COc1cc(-c2cn(C)c(=O)c(C)c2C)cc(Cl)c1CN1CCc2c(CC3CCN(c4ccc(NC5CCC(=O)NC5=O)cc4F)CC3)cccc2C1` (centres unmarked) [Compound 109]: less than 100 nM. `COc1cc(-c2cn(C)c(=O)c3cnccc23)cc(OC)c1C(=O)N1CCC(N2CCN(c3ccc(NC4CCC(=O)NC4=O)cc3F)CC2)C(F)(F)C1` (centres unmarked) [Compound 225]: the DC50 (Table 1) is less than 100 nM. As to `COc1cc(-c2cn(C)c(=O)c3cnccc23)cc(Cl)c1CN1CCC(N2CCN(c3ccc(NC4CCC(=O)NC4=O)cc3F)CC2)C(F)(F)C1` (single isomer, unassigned) [Compound 180, 3-[4-[4-[1-[[2-chloro-6-methoxy-4-(2-methyl-1-oxo-2,7-naphthyridin-4-yl)phenyl]methyl]-3,3-difluoro-4-piperidyl]piperazin-1-yl]-3-fluoro-anilino]piperidine-2,6-dione], the DC50 (Table 1) was less than 100 nM.

On to `COc1cc(-c2cn(C)c(=O)c3cnccc23)cc(Cl)c1CN1CCC(N2CCC(c3ccc(NC4CCC(=O)NC4=O)cc3F)CC2)C(F)(F)C1` (centres unmarked) [Compound 201], for which the DC50 (Table 1) is less than 100 nM. Take `COc1cc(-c2cn(C)c(=O)c(C)c2C)cc(OC)c1C(=O)N1CCc2c(CC3CCN(c4ccc(NC5CCC(=O)NC5=O)cc4C(F)(F)F)CC3)cccc2C1` (centres unmarked) [Compound 238]: where the note is “Table 1”, the DC50 is less than 100 nM. As to `COc1cc(-c2cn(C)c(=O)c(C)c2C)cc(Cl)c1CN1CCC(C2CCN(c3ccc(NC4CCC(=O)NC4=O)cc3Cl)CC2)CC1` (centres unmarked) [Compound 76], under “Table 1”, the DC50 was less than 100 nM. For the compound `COc1cc(-c2cn(C)c(=O)c3cnccc23)cc(Cl)c1C(=O)N1CCc2c(CN3CCC(c4ccc(NC5CCC(=O)NC5=O)cc4)C(F)(F)C3)cccc2C1` (centres unmarked) [Compound 236], where the note is “Table 1”, the DC50 was less than 100 nM. With `COc1cc(-c2cn(C)c(=O)c3[nH]ncc23)cc(OC)c1CN1C[C@H]2C[C@@H]1CN2C(=O)CN1CCC(c2ccc(NC3CCC(=O)NC3=O)cc2)CC1` (some centres unmarked) [Compound 14], the DC50 (Table 1) is less than 100 nM. For `Cc1c(-c2ccc(CN3CCC(C4CCN(c5ccc(NC6CCC(=O)NC6=O)nc5)CC4)CC3)c(OC(F)(F)F)c2)cn(C)c(=O)c1C` (centres unmarked) [Compound 90], for the setting “Table 1”, the DC50 was less than 100 nM. On the same count and under the same terms, to `Cc1c(-c2ccc(C(=O)N3CCC(N(C)C(=O)N4CCC(c5ccc(NC6CCC(=O)NC6=O)cc5F)CC4)CC3)c(OC(F)(F)F)c2)cn(C)c(=O)c1C` (centres unmarked) [Compound 143] belongs less than 100 nM. Take `COc1cc(-c2cn(C)c(=O)c(C)c2C)cc(Cl)c1CN1CCC(C2CCN(c3ccc(NC4CCC(=O)NC4=O)cc3F)CC2)C(F)(F)C1` (single isomer, unassigned) [Compound 256]: the DC50 (Table 2) is less than 100 nM. `Cn1cc(-c2ccc(CN3CCC(C4CCN(c5ccc(NC6CCC(=O)NC6=O)cc5F)CC4)CC3)c(OC(F)(F)F)c2)c2ccncc2c1=O` (centres unmarked) [Compound 79]: the DC50 (Table 1) was less than 100 nM.

For `COc1cc(-c2cn(C)c(=O)c3[nH]ncc23)cc(F)c1CN1CCN(C(=O)CN2CCC(c3ccc(NC4CCC(=O)NC4=O)cc3C(F)(F)F)CC2)CC1` (centres unmarked) [Compound 23], the DC50 (Table 1) is less than 100 nM.

Turning to `Cn1cc(-c2ccc(CN3CCC(N4CCN(c5ccc(NC6CCC(=O)NC6=O)cc5F)CC4)C(F)(F)C3)c(OC(F)(F)F)c2)c2ccncc2c1=O` (centres unmarked) [Compound 193], where the note is “Table 1”, the DC50 is less than 100 nM. Take `COc1cc(-c2cn(C)c(=O)c(C)c2C)cc(Cl)c1CN1CCC(F)(CCC2CCN(c3ccc(NC4CCC(=O)NC4=O)cc3F)CC2)CC1` (centres unmarked) [Compound 153]: for the setting “Table 1”, the DC50 is less than 100 nM. As for `COc1cc(-c2cn(C)c(=O)c3cnccc23)cc(F)c1CN1CCC(N(C)C(=O)N2CCC(c3ccc(NC4CCC(=O)NC4=O)cc3)CC2)C(F)(F)C1` (centres unmarked) [Compound 124], where the note is “Table 1”, the DC50 is less than 100 nM.

In the case of `COc1cc(-c2cn(C)c(=O)c3[nH]ncc23)cc(OC)c1CN1CCN(C(=O)CN2CC(c3ccc(NC4CCC(=O)NC4=O)cc3)C2)CC1` (centres unmarked) [Compound 32], the DC50 (Table 1) is less than 100 nM.

In the case of `COc1cc(-c2cn(C)c(=O)c3cnccc23)cc(OC)c1CN1CCN(C(=O)CC2CCN(c3ccc(NC4CCC(=O)NC4=O)cc3C(F)(F)F)CC2)CC12CC2` (centres unmarked) [Compound 59], the DC50 (Table 1) is less than 100 nM. `CCOc1cc(-c2cn(C)c(=O)c3[nH]ncc23)c(OC)cc1CN1CCN(C(=O)CN2CCC(c3ccc(NC4CCC(=O)NC4=O)cc3)CC2)CC1` (centres unmarked) [Compound 22]: where the note is “Table 1”, the DC50 is less than 100 nM. Turning to `COc1cc(-c2cn(C)c(=O)c3cnccc23)cc(Cl)c1CN1CCC(N(C)C(=O)N2CCC(c3ccc(NC4CCC(=O)NC4=O)cc3)CC2)CC1` (centres unmarked) [Compound 115], for the setting “Table 1”, the DC50 was less than 100 nM. The same measure, in the same setting: the same measure for `Cc1c(-c2ccc(CN3CCC(F)(C4CCN(c5ccc(NC6CCC(=O)NC6=O)cc5F)CC4)CC3)c(OC(F)(F)F)c2)cn(C)c(=O)c1C` (centres unmarked) [Compound 244]: less than 100 nM; for `COc1cc(-c2cn(C)c(=O)c3cnccc23)cc(OC)c1CN1CCC(N2CCN(c3ccc(NC4CCC(=O)NC4=O)cc3Cl)CC2)C(F)(F)C1` (centres unmarked) [Compound 188]: less than 100 nM; for `COc1cc(-c2cn(C)c(=O)c3ccccc23)cc(OC)c1CN1CCc2c(CN3CCC(c4ccc(NC5CCC(=O)NC5=O)cc4)CC3)cccc2C1` (centres unmarked) [Compound 97]: less than 100 nM.

For `COc1cc(-c2cn(C)c(=O)c(C)c2C)cc(OC)c1CN1CCC(N2CCN(c3ccc(OC4CCC(=O)NC4=O)cc3F)CC2)C(F)(F)C1` (centres unmarked) [Compound 251, 3-[4-[4-[1-[[2,6-dimethoxy-4-(1,4,5-trimethyl-6-oxo-3-pyridyl)phenyl]methyl]-3,3-difluoro-4-piperidyl]piperazin-1-yl]-3-fluoro-phenoxy]piperidine-2,6-dione], the DC50 (Table 2) is less than 100 nM. For `COc1cc(-c2cn(C)c(=O)c3cnccc23)cc(OC)c1CN1CCN(C(=O)CC2CCN(c3ccc(NC4CCC(=O)NC4=O)cc3C(F)(F)F)CC2)CC1` (centres unmarked) [Compound 54], the DC50 (Table 1) is less than 100 nM.

As for `COc1cc(-c2cn(C)c(=O)c3[nH]ncc23)cc(OC)c1CN1C[C@H]2CC(C(=O)N3CCC(c4ccc(NC5CCC(=O)NC5=O)cc4)CC3)C[C@H]2C1` (stereo partly drawn) [Compound 110, 3-[4-[1-[(3aR,6aS)-2-[[2,6-dimethoxy-4-(6-methyl-7-oxo-1H-pyrazolo[3,4-c]pyridin-4-yl)phenyl]methyl]-3,3a,4,5,6,6a-hexahydro-1H-cyclopenta[c]pyrrole-5-carbonyl]-4-piperidyl]anilino]piperidine-2,6-dione], the DC50 (Table 1) was less than 100 nM.
